Assay results published in article PMC11003488 (Journal of Enzyme Inhibition and Medicinal Chemistry, 2023).

Legend:
Assay type in all cases: cell-based
[1] = system: M14; assay: NCI-60 SRB growth inhibition, one-dose and five-dose; conditions: Homo sapiens; for inhibition at 10 µM: M14, read-out: percent growth inhibition
[2] = system: SF-268; assay: as above; conditions: Homo sapiens; for inhibition at 10 µM: SF-268, read-out: percent growth inhibition
[3] = system: MDA-MB-435; assay: as above; conditions: Homo sapiens; for inhibition at 10 µM: MDA-MB-435, read-out: percent growth inhibition
[4] = system: CCRF-CEM; assay: as above; conditions: Homo sapiens; for inhibition at 10 µM: read-out: percent growth inhibition
[5] = system: OVCAR-5; assay: as above; conditions: Homo sapiens; for inhibition at 10 µM: OVCAR-5, read-out: percent growth inhibition
[6] = system: NCI-H226; assay: as above; conditions: Homo sapiens; for inhibition at 10 µM: NCI-H226, read-out: percent growth inhibition
[7] = system: SNB-75; assay: as above; conditions: Homo sapiens
[8] = system: U251; assay: as above; conditions: Homo sapiens; for inhibition at 10 µM: U-251, read-out: percent growth inhibition
[9] = system: NCI/ADR-RES; assay: as above; conditions: Homo sapiens; for inhibition at 10 µM: read-out: percent growth inhibition
[10] = system: SK-MEL-5; assay: as above; conditions: Homo sapiens; for inhibition at 10 µM: SK-MEL-5, read-out: percent growth inhibition
[11] = system: MALME-3M; assay: as above; conditions: Homo sapiens; for inhibition at 10 µM: read-out: percent growth inhibition
[12] = system: SF-539; assay: as above; conditions: Homo sapiens; for inhibition at 10 µM: SF-539, read-out: percent growth inhibition
[13] = system: HOP-92; assay: as above; conditions: Homo sapiens; for inhibition at 10 µM: HOP-92, read-out: percent growth inhibition
[14] = system: HL-60(TB); assay: cells; conditions: Homo sapiens; for inhibition at 10 µM: HL-60, read-out: percent growth inhibition
[15] = system: SF-295; assay: NCI-60 SRB growth inhibition, one-dose and five-dose; conditions: Homo sapiens; for inhibition at 10 µM: SF-295, read-out: percent growth inhibition
[16] = system: IGROV1; assay: as above; conditions: Homo sapiens; for inhibition at 10 µM: IGROV-1, read-out: percent growth inhibition
[17] = system: SK-OV-3; assay: as above; conditions: Homo sapiens; for inhibition at 10 µM: SK-OV-3, read-out: percent growth inhibition
[18] = system: TK-10; assay: as above; conditions: Homo sapiens; for inhibition at 10 µM: TK-10, read-out: percent growth inhibition
[19] = system: NCI-H460; assay: as above; conditions: Homo sapiens; for inhibition at 10 µM: NCI-H460, read-out: percent growth inhibition
[20] = system: HT29; assay: as above; conditions: Homo sapiens; for inhibition at 10 µM: HT-29, read-out: percent growth inhibition
[21] = system: RXF 393; assay: as above; conditions: Homo sapiens; for inhibition at 10 µM: RXF 393, read-out: percent growth inhibition
[22] = system: NCI-H522; assay: as above; conditions: Homo sapiens; for inhibition at 10 µM: NCI-H522, read-out: percent growth inhibition
[23] = system: K-562; assay: as above; conditions: Homo sapiens; for inhibition at 10 µM: K562, read-out: percent growth inhibition
[24] = system: COLO 205; assay: as above; conditions: Homo sapiens; for inhibition at 10 µM: COLO 205, read-out: percent growth inhibition
[25] = system: MDA-MB-468; assay: as above; conditions: Homo sapiens; for inhibition at 10 µM: MDA-MB-468, read-out: percent growth inhibition
[26] = system: A498; assay: as above; conditions: Homo sapiens; for inhibition at 10 µM: A498, read-out: percent growth inhibition
[27] = system: SK-MEL-28; assay: as above; conditions: Homo sapiens; for inhibition at 10 µM: SK-MEL-28, read-out: percent growth inhibition
[28] = system: HOP-62; assay: as above; conditions: Homo sapiens; for inhibition at 10 µM: HOP-62, read-out: percent growth inhibition
[29] = system: UACC-62; assay: as above; conditions: Homo sapiens; for inhibition at 10 µM: UACC-62, read-out: percent growth inhibition
[30] = system: NCI-H322M; assay: as above; conditions: Homo sapiens; for inhibition at 10 µM: read-out: percent growth inhibition
[31] = system: DU-145; assay: as above; conditions: Homo sapiens; for inhibition at 10 µM: DU-145, read-out: percent growth inhibition
[32] = system: SNB-19; assay: as above; conditions: Homo sapiens; for inhibition at 10 µM: SNB-19, read-out: percent growth inhibition
[33] = system: A549/ATCC; assay: as above; conditions: Homo sapiens; for inhibition at 10 µM: A549, read-out: percent growth inhibition
[34] = system: BT-549; assay: as above; conditions: Homo sapiens; for inhibition at 10 µM: BT-549, read-out: percent growth inhibition
[35] = system: HS 578 T; assay: as above; conditions: Homo sapiens; for inhibition at 10 µM: read-out: percent growth inhibition
[36] = system: MOLT-4; assay: as above; conditions: Homo sapiens; for inhibition at 10 µM: MOLT-4, read-out: percent growth inhibition
[37] = system: SR; assay: as above; conditions: Homo sapiens
[38] = system: SW-620; assay: as above; conditions: Homo sapiens; for inhibition at 10 µM: SW-620, read-out: percent growth inhibition
[39] = system: LOX IMVI; assay: as above; conditions: Homo sapiens; for inhibition at 10 µM: read-out: percent growth inhibition
[40] = system: 786-0; assay: as above; conditions: Homo sapiens; for inhibition at 10 µM: 786-0, read-out: percent growth inhibition
[41] = system: OVCAR-4; assay: as above; conditions: Homo sapiens; for inhibition at 10 µM: OVCAR-4, read-out: percent growth inhibition
[42] = system: PC-3; assay: as above; conditions: Homo sapiens; for inhibition at 10 µM: PC-3, read-out: percent growth inhibition

## CC(=O)Nc1ccc(/C=C/C(=O)c2cccc(NCc3ccc(NC(C)=O)cc3)c2)cc1 [Compound 5g, (E)-N-(4–(3-(3-((4-acetamidobenzyl)amino)phenyl)-3-oxoprop-1-en-1-yl)phenyl) acetamide]
[1]; M14
  GI50: 12.6 µM
[1]
  inhibition at 10 µM: 77%
[2]; SF-268
  GI50: 18.4 µM
[2]
  inhibition at 10 µM: 78.7%
[3]; MDA-MB-435
  GI50: 10.3 µM
[3]
  inhibition at 10 µM: 39%
[4]
  GI50: 4.52 µM
  inhibition at 10 µM: 116%
[5]; OVCAR-5
  GI50: 12.3 µM
[5]
  inhibition at 10 µM: 45.2%
[6]; NCI-H226
  GI50: 12.9 µM
[6]
  inhibition at 10 µM: 126%
[7]; SNB-75
  GI50: 4.87 µM
[7]; SNB-75, read-out: percent growth inhibition
  inhibition at 10 µM: 17%
[8]; U-251
  GI50: 3.2 µM
[8]
  inhibition at 10 µM: 181%
[9]
  GI50: 16.5 µM
  inhibition at 10 µM: 88.2%
[10]; SK-MEL-5
  GI50: 12 µM
[10]
  inhibition at 10 µM: 99.6%
[11]
  GI50: 7.11 µM
  inhibition at 10 µM: 57.5%
[12]; SF-539
  GI50: 12.2 µM
[12]
  inhibition at 10 µM: 167%
[13]; HOP-92
  GI50: 11.8 µM
[13]
  inhibition at 10 µM: 26.9%
[14]; HL-60
  GI50: 7.08 µM
[14]
  inhibition at 10 µM: 100%
[15]; SF-295
  GI50: 14 µM
[15]
  inhibition at 10 µM: 51.8%
[16]; IGROV-1
  GI50: 5.59 µM
[16]
  inhibition at 10 µM: 56.3%
[17]; SK-OV-3
  GI50: 16.3 µM
[17]
  inhibition at 10 µM: 0.18%
[18]; TK-10
  GI50: 13.8 µM
[18]
  inhibition at 10 µM: 33.2%
[19]; NCI-H460
  GI50: 6.29 µM
[19]
  inhibition at 10 µM: 136%
[20]; HT-29
  GI50: 5.75 µM
[20]
  inhibition at 10 µM: 164%
[21]; RXF 393
  GI50: 11.3 µM
[21]
  inhibition at 10 µM: 158%
[22]; NCI-H522
  GI50: 6.54 µM
[22]
  inhibition at 10 µM: 159%
[23]; K562
  GI50: 2.93 µM
[23]
  inhibition at 10 µM: 100%
[24]; COLO 205
  GI50: 16 µM
[24]
  inhibition at 10 µM: 30.7%
[25]; MDA-MB-468
  GI50: 10 µM
[25]
  inhibition at 10 µM: 68.2%
[26]; A498
  GI50: 14.2 µM
[26]
  inhibition at 10 µM: 16.6%
[27]; SK-MEL-28
  GI50: 12.7 µM
[27]
  inhibition at 10 µM: 98.3%
[28]; HOP-62
  GI50: 14.5 µM
[28]
  inhibition at 10 µM: 35.3%
[29]; UACC-62
  GI50: 8.03 µM
[29]
  inhibition at 10 µM: 74.2%
[30]
  GI50: 13.8 µM
  inhibition at 10 µM: 28.7%
[31]; DU-145
  GI50: 11.8 µM
[31]
  inhibition at 10 µM: 61.7%
[32]; SNB-19
  GI50: 7 µM
[32]
  inhibition at 10 µM: 95.4%
[33]; A549
  GI50: 15.8 µM
[33]
  inhibition at 10 µM: 10.9%
[34]; BT-549
  GI50: 10.4 µM
[34]
  inhibition at 10 µM: 63.7%
[35]
  GI50: 10.6 µM
  inhibition at 10 µM: 32%
[36]; MOLT-4
  GI50: 3.21 µM
[36]
  inhibition at 10 µM: 116%
[37]
  GI50: 2.43 µM
[38]; SW-620
  GI50: 1.9 µM
[38]
  inhibition at 10 µM: 158%
[39]
  GI50: 1.9 µM
  inhibition at 10 µM: 191%
[40]; 786-0
  GI50: 13.7 µM
[40]
  inhibition at 10 µM: 144%
[41]; OVCAR-4
  GI50: 14 µM
[41]
  inhibition at 10 µM: 38.7%
[42]; PC-3
  GI50: 11.6 µM
[42]
  inhibition at 10 µM: 54.8%

## O=C(/C=C/c1c[nH]cn1)c1cccc(NCc2ccc(CO)cc2)c1 [Compound 5m, (E)-1–(3-((4-(hydroxymethyl)benzyl)amino)phenyl)-3-(1H-imidazol-4-yl)prop-2-en-1-one]
[1]
  inhibition at 10 µM: 15%
[2]
  inhibition at 10 µM: 8.96%
[3]
  inhibition at 10 µM: 8.36%
[4]
  inhibition at 10 µM: 45.6%
[5]
  inhibition at 10 µM: -1.46%
[6]
  inhibition at 10 µM: 14.6%
[8]
  inhibition at 10 µM: 56%
[9]
  inhibition at 10 µM: 6.75%
[10]
  inhibition at 10 µM: 21.7%
[11]
  inhibition at 10 µM: 23.1%
[12]
  inhibition at 10 µM: 11%
[13]
  inhibition at 10 µM: 22.2%
[14]
  inhibition at 10 µM: 65.9%
[15]
  inhibition at 10 µM: 4.92%
[16]
  inhibition at 10 µM: 9.93%
[17]
  inhibition at 10 µM: -2.54%
[18]
  inhibition at 10 µM: 6.96%
[19]
  inhibition at 10 µM: 6.83%
[20]
  inhibition at 10 µM: 24.9%
[21]
  inhibition at 10 µM: 38.3%
[22]
  inhibition at 10 µM: 89.4%
[23]
  inhibition at 10 µM: 80.4%
[24]
  inhibition at 10 µM: -0.06%
[25]
  inhibition at 10 µM: 80.5%
[26]
  inhibition at 10 µM: 2.28%
[27]
  inhibition at 10 µM: 6.66%
[28]
  inhibition at 10 µM: 13.9%
[29]
  inhibition at 10 µM: 30.5%
[30]
  inhibition at 10 µM: 13%
[31]
  inhibition at 10 µM: 6.04%
[32]
  inhibition at 10 µM: 16.8%
[33]
  inhibition at 10 µM: 14.1%
[34]
  inhibition at 10 µM: 34%
[35]
  inhibition at 10 µM: 4.31%
[36]
  inhibition at 10 µM: 28.5%
[37]; read-out: percent growth inhibition
  inhibition at 10 µM: 92.9%
[38]
  inhibition at 10 µM: 23.8%
[39]
  inhibition at 10 µM: 58.6%
[40]
  inhibition at 10 µM: 11.7%
[41]
  inhibition at 10 µM: 22%
[42]
  inhibition at 10 µM: 11.3%
